Key:
[1] = tested on: Staphylococcus And Enterococcus; assay: MIC of pure components in Mueller Hinton gelose; assay type: cell-based; design: MIC 50 / MIC 90: unit not given beside the values; conditions: Staphylococcus And Enterococcus n = 14; for MIC Range: in µg/mL
Enterobacteriaceae = assay: MIC of pure components in Mueller Hinton gelose; assay type: cell-based; design: unit not given beside the values; conditions: Enterobacteriaceae n = 13
Other Gram - rods = assay: MIC of pure components in Mueller Hinton gelose; assay type: cell-based; design: unit not given beside the values; conditions: Other Gram - rods n = 15
MRSA = conditions: cited from earlier work

Compound	MIC Range [1]	MIC 50 (Other Gram - rods)	MIC 90 (Other Gram - rods)	MIC Range (Other Gram - rods)	other results
O=C/C=C/c1ccccc1 [Cinnamaldehyde, trans-cinnamaldehyde]	150-300	600	1250		MIC Range (Enterobacteriaceae; in µg/mL): 150-600; MIC Range (Other Gram - rods; in µg/mL): 150-1250; bibliographic kinetic data on the main compound (MRSA): 1.7 h
CC12CCC(CC1)C(C)(C)O2 [Cineole, cineole]				>10000	
CC(=O)OCC=Cc1ccccc1 [Cinnamyl acetate, cinnamyl acetate]	5000-10000	>10000	>10000		
C=CC(C)(O)CCC=C(C)C (stereo not shown) [Linalool, linalool]	2500-10000	>10000	>10000		
C=C1CC/C=C(\C)CC[C@@H]2[C@@H]1CC2(C)C [Caryophyllene, beta-caryophyllene]		>10000	>10000	>10000	MIC 50 [1]: >10000; MIC 90 [1]: >10000; MIC 50 (Enterobacteriaceae): >10000; MIC 90 (Enterobacteriaceae): >10000; MIC Range (Enterobacteriaceae): >10000
O=C(OCc1ccccc1)c1ccccc1 [Benzyl benzoate, benzyl benzoate]				>10000	

Reference: patent US10864188B2, “Anti-microbial composition” (SEPTEOS, priority 2010, dated 2020)
